Experiments:
E. coli cells [1] = test: Growth inhibition after 5 min incubation with porphyrin and white-light irradiation; format: cell-based, Escherichia coli
Experimental: (§1) The abilities of various examples of the porphyrins of the instant invention to kill Gram-negative and Gram-positive bacteria were tested against that of T4MPyP. Each of the compounds was incubated with E. coli and S. aureus cells for 5 minutes, following which the samples were irradiated with white light for varying lengths of time.
(§2) Escherichia coli strain O4 (wild type), and methycillin-resistant Staphylococcus aureus, strain MRSA 110, were grown aerobically at 37° C. in brain heart infusion broth (BHI, Difco, Detroit, Mich.). The cells in the stationary phase of growth were harvested by centrifugation (2,000 g for 15 min) of the broth cultures, washed twice with 10 mM PBS at pH=7.4, containing 2.7 mM KCl and 0.14 M NaCl, and suspended in PBS at a density of 10^8-10^9 cells/ml (absorbance of about 0.7 at 650 nm). Aliquots of 5 ml of the cell suspension were incubated with 1 μM porphyrins for 5 min in the dark at room temperature. After incubation the suspensions were centrifuged and the cell pellets were collected immediately or washed with PBS and centrifuged again for one or three times.
(§3) The toxic effects of T4MPyP and its analogues on E. coli and S. aureus cells were evaluated by measuring the extent of growth inhibition (bacteriostatic effect) and reduction of survival (cytocidal/bacteriocidal effect) following treatment with porphyrin in the dark or upon light exposure.
(§4) In all cases, 5 ml of the cell suspension (10^8-10^9 cells/ml) were incubated for 5 min in the dark at room temperature with the selected photosensitizer at concentrations ranging between 0.5 and 10 μM. After dark-incubation, some of the cell samples were irradiated with white light (150 mW/cm^2). During irradiation, (up to 30 min) the cells were kept at 37° C. and magnetically stirred. The treated and untreated control cells were diluted with BHI and maintained at 37° C. while the absorbance of the suspension at 650 nm was monitored at predetermined time periods for determining growth curves. The percent of growth inhibition in the treated cells was calculated by the following equation: […]
(§5) where AX, and AC are the absorbances measured after 3 h incubation, respectively, for the treated and control cell suspensions, respectively, while A0 represents the initial absorbance and the AC is that of the control cell suspension after 5 hours incubation. Cell survival was determined by plating serially diluted aliquots of treated and untreated cells on brain heart agar and counting the number of colonies after 18-24 h incubation at 37° C.

[2] = Photostability (photobleaching) under white light; format: physicochemical; details: 1 μM in PBS
Experimental: The photostability of the porphyrins was determined in PBS upon illumination of […] solutions with white light (400-800 nm) isolated from the emission of a quartz-halogen lamp equipped with UV and infrared filters (Teclas, Lugano, Switzerland). The lamp was operated at a fluence rate of 150 mW/cm^2. During irradiation, the solution was magnetically stirred and kept at 37° C. The concentration of the porphyrin samples was monitored spectrophotometrically at different irradiation times and the photostability was expressed as the percent residual absorbance referred to the absorbance measured prior to irradiation.

[3] = Photosensitized photooxidation of NATA; details: 10 μM NATA; for ΦSDS × 10^3, quantum yield for photo-oxidation of NATA: aqueous 2% SDS; for ΦPBS × 10^3, quantum yield for photo-oxidation of NATA: phosphate buffered solution
Experimental: The photosensitizing activity of the various porphyrins was tested by measuring their efficiency in promoting the photooxidation of N-acetyl-L-tryptophanamide (NATA, Aldrich Chem. Co.) as a model biological substrate. Toward this aim, 10 μM NATA in PBS or in water containing 2% SDS was irradiated in the presence of 5 μM porphyrin. The irradiations were performed with 515±10 nm-light isolated by means of an interference filter (Balzers, Liechtenstein), while the solution (2 ml) was magnetically stirred in a quartz cuvette of 1-cm optical path and kept at 25° C. The photosensitized modification of NATA was followed by measuring the decrease in the intensity of its fluorescence emission spectrum (300-450 nm) upon excitation with 290 nm-light at various irradiation times. Plots of in F°/F (where F° and F represent the fluorescence intensity at time 0 and t, respectively) vs. the irradiation time allowed the first-order rate constants of the photo-process to be derived.
The intensity of the incident light was measured by using Aberchrome 999P in toluene as an actinometer. Heller, EPA Newslett., 29:49-60 (1987). This parameter was used to calculate the quantum yields of NATA photooxidation sensitized by the different porphyrins.

[4] = Fluorescence decay times (phase-shift method); format: physicochemical; details: ca. 5 μM, air-equilibrated buffer pH 7.4, λexc = 420 nm, λem > 600 nm
Experimental: Fluorescence decay times of the porphyrin samples were measured by means of a Spex Fluorolog-τ2 spectrofluorimeter based on the phase-shift method. The frequency response curves (phase-shift and demodulation ratio vs. frequency) were globally analyzed.

[5] = Fluorescence quantum yields; format: physicochemical; details: for ΦF (PBS), fluorescence quantum yield: in PBS; for ΦF (SDS), fluorescence quantum yield: in aqueous 2% SDS
Experimental: Ground-state absorption spectra of the porphyrins (ca. 5 μM in phosphate buffered saline (PBS, pH=7.4) were recorded with a Lambda 5 Perkin-Elmer spectrophotometer. Fluorescence spectra, corrected for the instrumental response, were recorded with a Perkin-Elmer (model LS) or a Spex (Fluorolog F112) spectrofluorimeter. Fluorescence quantum yields ((IF) of the porphyrin derivatives in PBS and in water containing 2% sodium dodecylsulfate (a detergent, hereinafter “SDS”) were determined by measuring the area of the emission spectrum (600-800 nm range, excitation at 560 nm) and using tetra-n-propylporphycene in toluene as a reference (ΦF=0.38). Braslavsky et al, J. Photochem. Photobiol. B: Biol., 40:191-198 (1997). In all cases, the absorbance of the sample and the reference solution were kept below 0.1 at the excitation wavelength to minimize inner filter effects.

[6] = Triplet state properties by laser flash photolysis; format: physicochemical; details: phosphate-buffered solution; for φT, triplet quantum yield: ε920 estimated by total depletion method
Experimental: Laser flash photolysis experiments were carried out by use of the setup previously described in Gomer, et al., with excitation wavelengths of 355 and 420 nm. Gorner, et al., Photoinduced electron transfer between styrylanthracenes and electron donors and acceptors in acetonitrile, J. Chem. Soc. Faraday Trans., vol. 88, pp. 29-34 (1992).
The transient spectra of the porphyrins in buffer solutions were recorded upon laser flash photolysis excitation at 355 and 420 nm. […] The decay (growth) of the signal (bleaching) occurred according to first-order kinetics and led to a complete recovery of the ground state with a lifetime of 91 μs. […] This also allowed the triplet quantum yield (φT) to be determined (see Table 3), after calibration of the experimental setup by use of an optically-matched solution of benzophenone in acetonitrile.

E. coli cells [7] = test: Decrease of cell survival (colony counting) after white-light irradiation; format: cell-based, Escherichia coli; details: 5 min dark incubation, 15 min white light (150 mW/cm^2)
Experimental: as §2, §3, §4, §5

S. aureus cells [8] = test: Growth inhibition after 5 min incubation with porphyrin and white-light irradiation; format: cell-based, Staphylococcus aureus
Experimental: as §1, §2, §3
[…] After dark-incubation, some of the cell samples were irradiated with white light (150 mW/cm^2). During irradiation, (up to 30 min) the cells were kept at 37° C. and magnetically stirred. The treated and untreated control cells were diluted with BHI and maintained at 37° C. while the absorbance of the suspension at 650 nm was monitored at predetermined time periods for determining growth curves. The percent of growth inhibition in the treated cells was calculated by the following equation:
as §5

E. coli cells [9] = test: Dark toxicity of porphyrins on bacteria cells; format: cell-based, Escherichia coli; details: 10 μM, 5 min incubation in the dark
Experimental: as §3, §4, §5

E. coli cells [10] = test: Binding of porphyrins to bacteria cells; format: cell-based, Escherichia coli; details: 5 min incubation, 1 μM porphyrin, three PBS washings
Experimental: as §2
(§6) The amount of cell-bound porphyrins was determined in the pellets after resuspension and overnight-incubation in 2% aqueous SDS. The porphyrin concentration in the cell lysate was determined by measuring the intensity of red fluorescence (600-750 nm) emitted after excitation at 420 nm and interpolating the data on a calibration plot obtained with known porphyrin concentrations. The protein content of the cell samples was determined by the method of Lowry (Lowry et al., J. Biol. Chem., 193:265-275 (1951)) and was used to express the amount of porphyrin bound to the cells as nanomoles of porphyrin/mg of protein.

S. aureus cells [11] = test: Binding of porphyrins to bacteria cells; format: cell-based, Staphylococcus aureus; details: S. aureus, 5 min incubation, 1 μM porphyrin, three PBS washings
Experimental: as §2, §6

S. aureus cells [12] = test: Dark toxicity of porphyrins on bacteria cells; format: cell-based, Staphylococcus aureus; details: 10 μM, 5 min incubation in the dark
Experimental: as §3, §4, §5

[13] = 1 μM, incubated 5 min, white light 5 min
[14] = Table 5: 1 μM, 5 min incubation, 5 min white light (150 mW/cm^2)
[15] = 10 μM, incubated 5 min, white light 5 min
[16] = 10 μM, incubated 5 min, white light 15 min
[17] = Table 5: 10 μM, 5 min incubation, 5 min white light (150 mW/cm^2)

Row | Structure (SMILES) | ΦSDS × 10^3, quantum yield for photo-oxidation of NATA [3] | ΦPBS × 10^3, quantum yield for photo-oxidation of NATA [3] | A2, relative weight of slow component [4] [%] | τ1, fluorescence decay time of fast component [4] [ns] | τ2, fluorescence decay time of slow component [4] [ns] | ΦF (PBS), fluorescence quantum yield [5] | ΦF (SDS), fluorescence quantum yield [5] | λmin of transient spectrum [6] [nm] | φ×ε920 [6] [M⁻¹ cm⁻¹] | τ^air, triplet lifetime [6] [μs] | φT, triplet quantum yield [6] | DECREASE OF SURVIVAL (log) (E. coli cells [7]; 1 μM porphyrin) | DECREASE OF SURVIVAL (log) (E. coli cells [7]; 10 μM porphyrin) | further results
1 | CCCCCCCCCCCCCCCCCCCCCC[n+]1ccc(-c2c3nc(c(-c4cc[n+](C)cc4)c4ccc([nH]4)c(-c4cc[n+](C)cc4)c4nc(c(-c5cc[n+](C)cc5)c5ccc2[nH]5)C=C4)C=C3)cc1.Cl.Cl.[Cl-].[Cl-].[Cl-].[Cl-] [Porphyrin C22, 5-(4-N-docosanyl)-10,15,20-tris(4-N-methylpyridyl)-21H,23H-porphine tetrachloride dihydrochloride salt] | 0.83 ± 0.08 | below our detection limits | 73 | 0.5 | 5.9 | 0.001 | 0.029 | 420 | <122 | 0.1 | <0.08 | +0.22 ± 0.07 log | −1.94 ± 0.28 | Growth inhibition (%) E. coli (E. coli cells [1]; [13]): 2.7%; Growth inhibition (%) E. coli (E. coli cells [1]; 1 μM, incubated 5 min, white light 30 min): 18.5%; Growth inhibition (%) E. coli (E. coli cells [1]; [14]): 3%; t^1/2 of initial fast photodegradation phase [2]: 6.5 min; Growth inhibition (%) S. aureus (S. aureus cells [8]; [13]): 69.7%; Growth inhibition (%) S. aureus (S. aureus cells [8]; 1 μM, incubated 5 min, white light 10 min): 90.2%; Growth inhibition (%) S. aureus (S. aureus cells [8]; Table 5: 0.5 μM, 5 min incubation, 5 min white light (150 mW/cm^2)): 27%; Growth inhibition (%) S. aureus (S. aureus cells [8]; [14]): 70%
2 | C[n+]1ccc(-c2c3nc(c(-c4cc[n+](C)cc4)c4ccc([nH]4)c(-c4cc[n+](C)cc4)c4nc(c(-c5cc[n+](C)cc5)c5ccc2[nH]5)C=C4)C=C3)cc1.Cc1ccc(S(=O)(=O)[O-])cc1.Cc1ccc(S(=O)(=O)[O-])cc1.Cc1ccc(S(=O)(=O)[O-])cc1.Cc1ccc(S(=O)(=O)[O-])cc1 [Porphyrin T4MPyP, Meso-tetra(N-methyl-4-pyridyl)porphine tetratosylate, reference compound] | 0.64 ± 0.08 | 0.77 ± 0.21 | 71 | 1.0 | 4.7 | 0.017 | 0.031 | 425 | 6814 | 14 | 0.73 | +0.28 log | −1.82 ± 0.82 | Growth inhibition (%) E. coli (E. coli cells [1]; [15]): 28.7%; Growth inhibition (%) E. coli (E. coli cells [1]; [16]): 82.8%; Growth inhibition (%) E. coli (E. coli cells [1]; [17]): 29%; concentration photoinducing significant bacteriostatic and bactericidal action (E. coli cells [1]; both cell strains (S. aureus and E. coli)): 10 µM; inhibition of bacterial cell growth in the dark (E. coli cells [9]): barely detectable inhibition; A1, relative weight of fast component [4]: 29%; initially bound porphyrin retained after three washings (E. coli cells [10]): 11%; λmax of transient spectrum [6]: 480 nm; τ^N2, triplet lifetime ([6]; N2): 91 μs; initially bound porphyrin retained after three washings (S. aureus cells [11]): 16%; Growth inhibition (%) S. aureus (S. aureus cells [8]; [15]): 96.4%; Growth inhibition (%) S. aureus (S. aureus cells [8]; [16]): 100%; Growth inhibition (%) S. aureus (S. aureus cells [8]; [17]): 96%; inhibition of bacterial cell growth in the dark (S. aureus cells [12]): barely detectable inhibition

From patent US6573258B2, “Photodynamic porphyrin antimicrobial agents” (Frontier Scientific, Inc., priority 2000, dated 2003)
